Laboratory results as given in patent US20020054880A1, “Anti-inflammatory, tolerogenic and immunoinhibiting properties of carbohydrate binding-peptides” (priority 1992, published 2002).
“Also recorded” adds a separate entry of the source.

How the values were obtained:
[1] = target: T1, PT-biotin binding to asialofetuin (Bos taurus, UniProt P12763); experiment: PT-biotin binding to asialofetuin, binding inhibition assay; design: species or system Bordetella pertussis; conditions: for Percent Changes in Binding Activity PT/asialo-fetuin: peptide mg/mL: S2PL 1.2, ACS2P1 1.0, S2P2 1.1, S2P3 0.51, S2P4 0.98, S2P6 0.85, S3P1 3.2, S3P2 3.1, S3P3 4.5, S3P4 3.3, S3P5 0.48, SPYGRC 4.4, + enhancement, − inhibition
T1 construct: made in house
T1 sequence (P12763 19-359): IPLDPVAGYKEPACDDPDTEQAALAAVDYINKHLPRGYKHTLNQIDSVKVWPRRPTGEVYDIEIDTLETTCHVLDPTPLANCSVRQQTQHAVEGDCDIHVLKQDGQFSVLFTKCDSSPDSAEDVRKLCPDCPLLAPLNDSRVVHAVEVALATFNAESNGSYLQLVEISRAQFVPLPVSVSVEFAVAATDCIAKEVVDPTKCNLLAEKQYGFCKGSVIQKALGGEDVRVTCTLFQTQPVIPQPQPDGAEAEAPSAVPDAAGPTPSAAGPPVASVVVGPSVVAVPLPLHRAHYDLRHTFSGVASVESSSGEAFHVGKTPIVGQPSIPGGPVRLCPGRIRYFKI
Description: (§1) Peptides ranging in concentration from 0.5 to 4.5 mg/ml in PBS (40 μl) were added to each well and PT-biotin (10 μl containing 10 ng in PBS) was then added to the microtiter wells. […] Horseradish peroxidase-conjugated avidin (100 μl, 1/3000 dilution in PBST to a concentration of 0.3 μg/ml) was then added to the wells, and the plates were incubated at ambient temperature for 1 hour. […] Color development was recorded at 405 nm using a Titertek Multiskan MC plate reader. […] Binding assays for each peptide were done in duplicate. Binding inhibition experiments utilizing SNA-, WGA-, and MAL-biotin were performed as described above using 10 ng of each biotinylated lectin in PBS.
(§2) Binding assays for each inhibitor concentration were done at least in duplicate, and the average value varied less than 15%.

[2] = target: T2, PT-biotin binding to fetuin (Bos taurus, UniProt P12763); experiment: PT-biotin binding to fetuin, binding inhibition assay; design: species or system Bordetella pertussis; conditions: for Percent Changes in Binding Activity PT/fetuin: peptide mg/mL: S2PL 1.2, ACS2P1 1.0, S2(14-2.3) 1.0, S2P2 1.1, S2P3 0.51, S2P4 0.98, S2P6 0.85, S3P1 3.2, S3P2 3.1, S3P3 4.5, S3P4 3.3, S3P5 0.48, S3P9a 1.7, SPYGRC 4.4, S2(WGA) 1.0, WGA (62-73) 1.0, + enhancement, − inhibition
T2 construct: purchased Sigma Chemical Company (fetuin); Connaught Center for Biotechnology Research (PT)
T2 sequence (P12763 19-359): T1 sequence (P12763 19-359)
Description: as §1, §2

[3] = target: T3, ACS2P1-biotin binding to fetuin (Bos taurus, UniProt P12763); experiment: biochemical; conditions: peptide μM: ACS2P1 4.1, S2P2 42.5, SPYGRC 5520, S2P3 22.4, S2P4 6.0, S2P6 319, S3P1 1142, S3P2 934, S3P3 16.1, S3P4 6.4, S3P5 22.5; ACS2P1-biotin 0.1 μg; − inhibition, + enhancement
T3 construct: purchased Sigma Chemical Company
T3 sequence (P12763 19-359): T1 sequence (P12763 19-359)

[4] = target: T4, WGA-biotin binding to fetuin (Bos taurus, UniProt P12763); experiment: biochemical; conditions: for Percent Changes in Binding Activity WGA/fetuin: peptide mg/mL: S2PL 1.2, ACS2P1 1.0, S2(14-2.3) 1.0, S2P2 1.1, S2P3 0.51, S2P4 0.98, S2P6 0.85, S3P1 3.2, S3P2 3.1, S3P3 4.5, S3P4 3.3, S3P5 0.48, SPYGRC 4.4, S2(WGA) 1.0, WGA (62-73) 1.0, + enhancement, − inhibition
T4 sequence (P12763 19-359): T1 sequence (P12763 19-359)
Description: (§3) The solution was removed by aspiration and replaced with 100 μl of 1% BSA in PBS containing 0.05% Tween 20 (PBST). After incubation for 2-4 hours at room temperature, the microtiter wells were washed four times with 300 μl of PBST. Peptides ranging in concentration from 0.5 to 4.5 mg/ml in PBS (40 μl) were added to each well and PT-biotin (10 μl containing 10 ng in PBS) was then added to the microtiter wells. After incubating for 1 hour, the binding reaction was stopped by aspirating the solutions and the plate was washed with PBST (300 μl). Horseradish peroxidase-conjugated avidin (100 μl, 1/3000 dilution in PBST to a concentration of 0.3 μg/ml) was then added to the wells, and the plates were incubated at ambient temperature for 1 hour. After washing the wells as described above, the substrate solution [1 mM ABTS in 5 mM citrate buffer, pH 4.2, containing 0.1% hydrogen peroxide, v/v) was added and the plates were incubated for 30 minutes. Color development was recorded at 405 nm using a Titertek Multiskan MC plate reader. Maximum binding was determined in the absence of peptide, and background binding was measured in wells coated with BSA only. Binding assays for each peptide were done in duplicate. Binding inhibition experiments utilizing SNA-, WGA-, and MAL-biotin were performed as described above using 10 ng of each biotinylated lectin in PBS.

[5] = target: T5, SNA-biotin binding to fetuin (Bos taurus, UniProt P12763); experiment: biochemical; conditions: peptide mg/mL: S2PL 1.2, ACS2P1 1.0, S2(14-2.3) 1.0, S2P2 1.1, S2P3 0.51, S2P4 0.98, S2P6 0.85, S3P1 3.2, S3P2 3.1, S3P3 4.5, S3P4 3.3, S3P5 0.48, S3P9a 1.7, SPYGRC 4.4, S2(WGA) 1.0, WGA (62-73) 1.0; + enhancement, − inhibition
T5 sequence (P12763 19-359): T1 sequence (P12763 19-359)
Description: as §3

[6] = target: T6, MAL-biotin binding to fetuin (Bos taurus, UniProt P12763); experiment: MAL-biotin binding to fetuin, binding inhibition assay; design: species or system Maackia amurensis; conditions: for Percent Changes in Binding Activity MAL/fetuin: peptide mg/mL: S2PL 1.2, ACS2P1 1.0, S2(14-2.3) 1.0, S2P2 1.1, S2P3 0.51, S2P4 0.98, S2P6 0.85, S3P1 3.2, S3P2 3.1, S3P3 4.5, S3P4 3.3, S3P5 0.48, S3P9a 1.7, SPYGRC 4.4, S2(WGA) 1.0, WGA (62-73) 1.0, + enhancement, − inhibition
T6 construct: purchased Sigma Chemical Company (fetuin); Boehringer Mannheim (MAL-biotin)
T6 sequence (P12763 19-359): T1 sequence (P12763 19-359)
Description: as §1, §2

[7] = target: T7, ACS2P1-biotin binding to asialofetuin (Bos taurus, UniProt P12763); experiment: Screening of S2 and S3 peptides for inhibition of ACS2P1-biotin binding to asialofetuin; conditions: peptide μM: ACS2P1 4.1, S2P2 42.5, SPYGRC 5520, S2P3 22.4, S2P4 6.0, S2P6 319, S3P1 1142, S3P2 934, S3P3 16.1, S3P4 6.4, S3P5 22.5; ACS2P1-biotin 0.1 μg; − inhibition, + enhancement
T7 construct: made in house
T7 sequence (P12763 19-359): T1 sequence (P12763 19-359)

Compound	Percent Changes in Binding Activity PT/asialo-fetuin [1]	IC50 [2]	effect on PT-biotin binding to fetuin, in words [2]	Percent Changes in Binding Activity PT/fetuin [2]	Percent Change in Binding Activity Fetuin [3]	IC50 [4]	Percent Changes in Binding Activity WGA/fetuin [4]	Percent Changes in Binding Activity SNA/fetuin [5]	IC50 [6]	effect on MAL-biotin binding to fetuin, in words [6]	Percent Changes in Binding Activity MAL/fetuin [6]	Percent Change in Binding Activity Asialofetuin [7]	effect on PT-biotin binding to asialofetuin, in words [1]	IC50 PT-b (asialofetuin) ([1]; wells coated with 3 μg/ml asialofetuin, 2-fold dilutions of peptide in PBS)	enhancement of PT-biotin binding to fetuin relative to control experiments in the absence of peptide ([2]; initial peptide screening)
CC[C@H](C)[C@H](NC(=O)[C@H](CS)NC(=O)[C@H](Cc1ccccc1)NC(=O)[C@@H](NC(=O)[C@@H](NC(=O)[C@H](CCCCN)NC(=O)[C@H](CC(C)C)NC(=O)[C@H](CC(=O)O)NC(=O)[C@H](Cc1ccccc1)NC(=O)[C@H](C)NC(=O)CN)[C@@H](C)O)[C@@H](C)O)C(=O)N[C@@H](CCSC)C(=O)N[C@H](C(=O)N[C@H](C(=O)N[C@@H](CCCNC(=N)N)C(=O)N[C@@H](CC(N)=O)C(=O)N[C@H](C(=O)NCC(=O)N[C@@H](CCC(N)=O)C(=O)N1CCC[C@H]1C(=O)N[C@@H](C)C(=O)O)[C@@H](C)O)[C@@H](C)O)[C@@H](C)O [Peptide S2P3]	−15(1) Percent	190 ± 90 µM	inhibit binding to fetuin of all the biotinylated lectins	−21 ± 0%	+70 ± 11%	140 ± 30 µM	−56 ± 8%	−15 ± 4%	860 ± 20 µM	inhibit binding to fetuin of all the biotinylated lectins; also recorded: very active at inhibiting	−18 ± 2%	+15 ± 11%	–	–	–
CC[C@H](C)[C@H](NC(=O)[C@@H](NC(=O)[C@@H]1CCCN1C(=O)[C@H](CCC(N)=O)NC(=O)CNC(=O)[C@H](CO)NC(=O)[C@H](CCCNC(=N)N)NC(=O)[C@@H](NC(=O)[C@@H](N)Cc1ccccc1)C(C)C)C(C)C)C(=O)NCC(=O)N[C@@H](C)C(=O)N[C@@H](CS)C(=O)N[C@H](C(=O)N[C@@H](CO)C(=O)N1CCC[C@H]1C(=O)N[C@@H](Cc1ccc(O)cc1)C(=O)N[C@@H](CC(=O)O)C(=O)NCC(=O)N[C@@H](CCCCN)C(=O)N[C@@H](Cc1ccc(O)cc1)C(=O)N[C@@H](Cc1c[nH]c2ccccc12)C(=O)N[C@@H](CO)C(=O)N[C@@H](CCSC)C(=O)N[C@@H](Cc1ccc(O)cc1)C(=O)N[C@@H](CO)C(=O)N[C@@H](CCCNC(=N)N)C(=O)N[C@@H](CC(C)C)C(=O)N[C@@H](CCCNC(=N)N)C(=O)N[C@@H](CCCCN)C(=O)N[C@@H](CCSC)C(=O)N[C@@H](CC(C)C)C(=O)N[C@@H](Cc1ccc(O)cc1)C(=O)O)[C@@H](C)O [Peptide S2P6]	−18(1) Percent	220 ± 60 µM	–	−28 ± 6%	+49 ± 5%	–	+57 ± 0%	+2 ± 2%	–	–	+18 ± 16%	+18 ± 16%	–	–	–
AGFIYRETFCITTIYKTGQPAADHYYSKVTA [Peptide S3P4]	+75 ± 50%	–	–	+12 ± 2%	+55 ± 26%	–	+13 ± 1%	+1(1) Percent	–	–	+7 ± 1%	+26 ± 2%	–	–	–
Ac-PQEQITQHGSPYGRC-NH2 [ACS2P1]	+190 ± 23%	–	–	+89 ± 3%	–	–	–	–	–	–	+16 ± 9%	+101 ± 2%	–	–	–
CASPYEGRYRDMYDALRRLLY [Peptide S3P5]	−26 ± 10%	–	–	+14 ± 6%	−19 ± 4%	–	+35 ± 8%	0(1) Percent	–	–	+3 ± 6%	−17 ± 8%	reduce binding of PT to asialofetuin only; also recorded: inhibit PT-biotin's interaction with asialofetuin in a concentration-dependent manner	above the solubility limits of the peptide in PBS	–
H-SQYGYCGFGAEY-OH [WGA (62-73)]	–	1500 µM	–	−32 ± 5%	–	3400 µM	−9 ± 1%	−3 ± 2%	–	–	−1 ± 4%	–	–	–	–
PQEQITQHGSPYGRC [Peptide S2P1]	+113(1) Percent	–	enhancement of binding of PT to fetuin	+85 ± 4%	–	–	−18 ± 2%	−5 ± 1%	–	–	+8 ± 4%	–	–	–	~2 fold
PQEQITQHGSQYGYC [S2 (WGA)]	–	–	–	+79 ± 15%	–	–	−4 ± 3%	0 ± 1%	–	–	+22 ± 3%	–	–	–	–
TQHGSPYGRC [S2 (14-23)]	–	–	–	+68 ± 9%	–	–	+7 ± 1%	+1 ± 2%	–	–	+32 ± 1%	–	–	–	–
